The target of this assay is T1, Androgen receptor (Rattus norvegicus, UniProt P15207).
T1 sequence (P15207 whole entry): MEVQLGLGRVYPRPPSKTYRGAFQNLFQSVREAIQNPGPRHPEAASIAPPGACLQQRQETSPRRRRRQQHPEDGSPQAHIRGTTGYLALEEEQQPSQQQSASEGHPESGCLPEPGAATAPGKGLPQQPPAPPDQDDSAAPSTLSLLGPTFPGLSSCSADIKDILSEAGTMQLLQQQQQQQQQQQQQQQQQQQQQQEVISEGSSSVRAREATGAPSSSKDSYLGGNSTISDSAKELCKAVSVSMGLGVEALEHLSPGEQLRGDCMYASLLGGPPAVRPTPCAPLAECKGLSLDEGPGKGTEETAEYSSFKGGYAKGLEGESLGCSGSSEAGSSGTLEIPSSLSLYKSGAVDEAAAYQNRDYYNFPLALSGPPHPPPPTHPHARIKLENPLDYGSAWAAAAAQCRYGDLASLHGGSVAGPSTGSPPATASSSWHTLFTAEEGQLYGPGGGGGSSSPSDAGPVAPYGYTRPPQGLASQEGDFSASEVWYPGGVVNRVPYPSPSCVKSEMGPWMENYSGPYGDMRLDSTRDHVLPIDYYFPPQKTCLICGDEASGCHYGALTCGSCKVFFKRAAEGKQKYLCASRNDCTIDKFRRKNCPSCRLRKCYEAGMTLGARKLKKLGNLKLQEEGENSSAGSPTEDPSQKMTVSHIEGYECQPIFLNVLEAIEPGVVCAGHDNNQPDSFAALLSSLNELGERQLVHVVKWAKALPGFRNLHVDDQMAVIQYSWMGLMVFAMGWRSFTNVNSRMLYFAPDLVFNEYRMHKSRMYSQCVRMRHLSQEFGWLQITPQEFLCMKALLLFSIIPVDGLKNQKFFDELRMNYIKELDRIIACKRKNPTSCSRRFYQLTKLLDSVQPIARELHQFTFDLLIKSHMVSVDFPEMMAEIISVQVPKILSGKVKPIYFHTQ
Description: Inhibitory constant against rat prostate cytosol androgen receptor using [3H]mibolerone

Compound `CC1(C)C(=O)N(c2ccc(C#N)c(C(F)(F)F)c2)C(=S)N1CCCCO` returned a Ki of 2.23 nM. `C[C@@H]1CC2=CC(=O)CC[C@@H]2[C@H]2CC[C@@]3(C)[C@@H](CC[C@]3(C)O)[C@@H]21` [MIBOLERONE] gave a Ki of 0.75 nM. As for `CC1(C)C(=O)N(c2ccc(C#N)c(I)c2)C(=S)N1CCCCO`, the figure is 0.71 nM.
